Results taken from US6696494B2, “α-hydroxyarylbutanamine inhibitors of aspartyl protease” (Enanta Pharmaceuticals, Inc., priority 2001, dated 2004).

Biological target: HIV-1 protease (Human immunodeficiency virus type 1 group M subtype B, UniProt P04585)
Assay: Inhibition of microbial expressed viral protease (HIV-1 protease), method of Toth and Marshall
Format: biochemical
Method: Biological Assay for Inhibition of Microbial Expressed Viral Protease
The inhibition constants against HIV-1 protease were measured using the method described by M. V. Toth and G. R. Marshall, Int. J. Peptide protein Res., 1990, 544. The method described M. W. Pennington et al., Peptides 1990, Gimet, E. and D. Andrew, Eds., Escom; Leiden, Netherlands (1990) may also be used. The potency is measured as IC50in μM. The person of skill would accept these tests as predictive of the compounds' utility in vivo to treat HIV infected patients.

CC(C)CNC(=O)c1ccccc1CC[C@@H](O)[C@H](Cc1ccccc1)NC(=O)OC(C)(C)C [Example 000156]
IC50: < 0.1 µM

CC(C)(C)NC(=O)c1ccccc1CC[C@@H](O)[C@H](Cc1ccccc1)NC(=O)O[C@H]1CCOC1 [Example 000180]
IC50: < 0.1 µM

CCOC(=O)NC(Cc1ccccc1)C(O)C=Cc1ccccc1C(=O)NC(C)(C)C (stereo not shown) [Example 000207]
IC50: 0.1 to 10 µM

CC(C)(C)NC(=O)c1ccccc1CC[C@@H](O)[C@H](Cc1ccccc1)NC(=O)N1c2ccccc2Sc2ccccc21 [Example 00241]
IC50: > 10 µM

C[C@H](O)C(=O)N[C@@H](Cc1ccccc1)[C@H](O)CCc1ccccc1C(=O)NC(C)(C)C [Example 000242]
IC50: 0.1 to 10 µM

CC(Oc1ccccc1)C(=O)NC(Cc1ccccc1)C(O)CCc1ccccc1C(=O)NC(C)(C)C (stereo not shown) [Example 000243]
IC50: 0.1 to 10 µM

CC(C)(C)NC(=O)c1ccccc1CC[C@@H](O)[C@H](Cc1ccccc1)NC(=O)COc1ccccc1 [Example 000244]
IC50: 0.1 to 10 µM

CC(C)(C)NC(=O)c1ccccc1CC[C@@H](O)[C@H](Cc1ccccc1)NC(=O)c1ccccc1 [Example 000245]
IC50: 0.1 to 10 µM

CCCCNC(=O)c1ccccc1CC[C@@H](O)[C@H](Cc1ccccc1)NC(=O)OC(C)(C)C [Example 000344]
IC50: 0.1 to 10 µM

CC(C)(C)NC(=O)c1ccccc1CC[C@@H](O)[C@H](Cc1ccccc1)NC(=O)COc1ccc2ccccc2c1 [Example 000760]
IC50: 0.1 to 10 µM

CC(C)(C)NC(=O)c1ccccc1CC[C@@H](O)[C@H](Cc1ccccc1)NC(=O)Cc1ccccc1 [Example 00762]
IC50: 0.1 to 10 µM

CC(C)(C)NC(=O)c1ccccc1CC[C@@H](O)[C@H](Cc1ccccc1)NC(=O)CCc1ccccc1 [Example 000763]
IC50: 0.1 to 10 µM

CC(C)CCNC(=O)c1ccccc1CC[C@@H](O)[C@H](Cc1ccccc1)NC(=O)OC(C)(C)C [Example 000766]
IC50: 0.1 to 10 µM

CCOC(=O)N[C@@H](Cc1ccccc1)[C@H](O)CCc1ccccc1C(=O)NCCC(C)C [Example 000770]
IC50: 0.1 to 10 µM

CCNC(=O)N[C@@H](Cc1ccccc1)[C@H](O)CCc1ccccc1C(=O)NC(C)(C)C [Example 000771]
IC50: 0.1 to 10 µM

CC(C)(C)NC(=O)c1ccccc1CC[C@@H](O)[C@H](Cc1ccccc1)NC(=O)NC(=O)CCl [Example 000869]
IC50: > 10 µM

CCc1ccc(S(=O)(=O)N[C@@H](Cc2ccccc2)[C@H](O)CCc2ccccc2C(=O)NC(C)(C)C)cc1 [Example 000874]
IC50: 0.1 to 10 µM

CCC(C)(C)c1ccc(S(=O)(=O)N[C@@H](Cc2ccccc2)[C@H](O)CCc2ccccc2C(=O)NC(C)(C)C)cc1 [Example 000875]
IC50: 0.1 to 10 µM

CC(C)(C)NC(=O)c1ccccc1CC[C@@H](O)[C@H](Cc1ccccc1)NS(=O)(=O)c1ccc(C#N)cc1 [Example 000876]
IC50: 0.1 to 10 µM

CC(C)(C)NC(=O)c1ccccc1CC[C@@H](O)[C@H](Cc1ccccc1)NS(=O)(=O)c1ccc(C(F)(F)F)cc1 [Example 000877]
IC50: 0.1 to 10 µM

CC(C)(C)NC(=O)c1ccccc1CC[C@@H](O)[C@H](Cc1ccccc1)NS(=O)(=O)c1cccc2cccnc12 [Example 00878]
IC50: 0.1 to 10 µM

CC(C)(C)NC(=O)c1ccccc1CC[C@@H](O)[C@H](Cc1ccccc1)NS(=O)(=O)c1ccc(Br)c(Cl)n1 [Example 000879]
IC50: 0.1 to 10 µM

CC(C)(C)NC(=O)c1ccccc1CC[C@@H](O)[C@H](Cc1ccccc1)NS(=O)(=O)c1cccs1 [Example 000880]
IC50: 0.1 to 10 µM

CC(C)S(=O)(=O)N[C@@H](Cc1ccccc1)[C@H](O)CCc1ccccc1C(=O)NC(C)(C)C [Example 000881]
IC50: 0.1 to 10 µM

CC(C)(C)NC(=O)c1ccccc1CC[C@@H](O)[C@H](Cc1ccccc1)NC(=O)NC1CCCCC1 [Example 000882]
IC50: > 10 µM

CC(C)(C)NC(=O)c1ccccc1CC[C@@H](O)[C@H](Cc1ccccc1)NC(=O)Nc1ccc([N+](=O)[O-])cc1 [Example 000889]
IC50: 0.1 to 10 µM

CCCCCNC(=O)N[C@@H](Cc1ccccc1)[C@H](O)CCc1ccccc1C(=O)NC(C)(C)C [Example 000890]
IC50: 0.1 to 10 µM

CCCCNC(=O)N[C@@H](Cc1ccccc1)[C@H](O)CCc1ccccc1C(=O)NC(C)(C)C [Example 000891]
IC50: 0.1 to 10 µM

CC(C)NC(=O)N[C@@H](Cc1ccccc1)[C@H](O)CCc1ccccc1C(=O)NC(C)(C)C [Example 000892]
IC50: 0.1 to 10 µM

CCc1ccc(NC(=O)N[C@@H](Cc2ccccc2)[C@H](O)CCc2ccccc2C(=O)NC(C)(C)C)cc1 [Example 000893]
IC50: 0.1 to 10 µM

Cc1ccc(CO)cc1C(=O)N[C@@H](Cc1ccccc1)[C@H](O)CCc1ccccc1C(=O)NC(C)(C)C [Example 000895]
IC50: < 0.1 µM

COc1ccc(Br)c(C(=O)N[C@@H](Cc2ccccc2)[C@H](O)CCc2ccccc2C(=O)NC(C)(C)C)c1 [Example 000900]
IC50: 0.1 to 10 µM

CC(C)(C)NC(=O)c1ccccc1CC[C@@H](O)[C@H](Cc1ccccc1)NC(=O)c1ccc(F)cc1F [Example 000901]
IC50: 0.1 to 10 µM

CC(C)(C)NC(=O)c1ccccc1CC[C@@H](O)[C@H](Cc1ccccc1)NC(=O)c1ccc(Cl)cc1Cl [Example 000902]
IC50: 0.1 to 10 µM

CC(C)(C)NC(=O)c1ccccc1CC[C@@H](O)[C@H](Cc1ccccc1)NC(=O)c1ccc(N)cc1Cl [Example 000944]
IC50: > 10 µM

Cc1c(N)cccc1C(=O)N[C@@H](Cc1ccccc1)[C@H](O)CCc1ccccc1C(=O)NC(C)(C)C [Example 000945]
IC50: > 10 µM

CC(C)(C)NC(=O)c1ccccc1CC[C@@H](O)[C@H](Cc1ccccc1)NC(=O)c1cccc([N+](=O)[O-])c1Br [Example 000946]
IC50: > 10 µM

CC(C)(C)NC(=O)c1ccccc1CCC(O)C(Cc1ccccc1)NC(=O)C(F)=Cc1ccccc1 (stereo not shown) [Example 000947]
IC50: > 10 µM

CC(C)(C)NC(=O)c1ccccc1CC[C@@H](O)[C@H](Cc1ccccc1)NC(=O)c1cc(F)cc(F)c1 [Example 000948]
IC50: > 10 µM

Cc1ccc(C(=O)C=CC(=O)NC(Cc2ccccc2)C(O)CCc2ccccc2C(=O)NC(C)(C)C)cc1 (stereo not shown) [Example 000950]
IC50: > 10 µM

Cc1cccc(C)c1C(=O)N[C@@H](Cc1ccccc1)[C@H](O)CCc1ccccc1C(=O)NC(C)(C)C [Example 000951]
IC50: < 0.1 µM

CN(C)c1ccc(C(=O)N[C@@H](Cc2ccccc2)[C@H](O)CCc2ccccc2C(=O)NC(C)(C)C)cc1 [Example 000954]
IC50: > 10 µM

COc1cccc(OC)c1C(=O)N[C@@H](Cc1ccccc1)[C@H](O)CCc1ccccc1C(=O)NC(C)(C)C [Example 000966]
IC50: 0.1 to 10 µM

CC(C)(C)NC(=O)c1ccccc1CC[C@@H](O)[C@H](Cc1ccccc1)NC(=O)c1cc(Cl)cc(Cl)c1 [Example 000967]
IC50: 0.1 to 10 µM

CC(C)(C)NC(=O)c1ccccc1CC[C@@H](O)[C@H](Cc1ccccc1)NC(=O)c1ccccc1C(=O)c1ccccc1 [Example 00968]
IC50: 0.1 to 10 µM

CC(C)(C)NC(=O)c1ccccc1CC[C@@H](O)[C@H](Cc1ccccc1)NC(=O)c1c(F)cccc1F [Example 000969]
IC50: 0.1 to 10 µM

CC(C)(C)NC(=O)c1ccccc1CC[C@@H](O)[C@H](Cc1ccccc1)NC(=O)c1cc(N)ccc1Cl [Example 000971]
IC50: 0.1 to 10 µM

Cc1c(O)cccc1C(=O)N[C@@H](Cc1ccccc1)[C@H](O)CCc1ccccc1C(=O)NC(C)(C)C [Example 000972]
IC50: < 0.1 µM

CC(C)(C)NC(=O)c1ccccc1CC[C@@H](O)[C@H](Cc1ccccc1)NC(=O)CCC(=O)c1ccc(F)cc1 [Example 000973]
IC50: < 0.1 µM

CC(C)(C)NC(=O)c1ccccc1CC[C@@H](O)[C@H](Cc1ccccc1)NC(=O)c1cc(=O)c2ccccc2o1 [Example 000974]
IC50: > 10 µM

Cc1cccc(C)c1OCC(=O)N[C@@H](Cc1ccccc1)[C@H](O)CCc1ccccc1C(=O)NC(C)(C)C [Example 000987]
IC50: < 0.1 µM

CC(C)(C)NC(=O)c1ccccc1CC[C@@H](O)[C@H](Cc1ccccc1)NC(=O)N(c1ccccc1)c1ccccc1 [Example 001006]
IC50: 0.1 to 10 µM

CC(C)(C)NC(=O)c1ccccc1CC[C@@H](O)[C@H](Cc1ccccc1)NC(=O)N1CCOCC1 [Example 001008]
IC50: 0.1 to 10 µM

CC(C)(C)NC(=O)c1ccccc1CC[C@@H](O)[C@H](Cc1ccccc1)NS(=O)(=O)c1cccc(Cl)c1Cl [Example 001010]
IC50: > 10 µM

CC(C)(C)NC(=O)c1ccccc1CC[C@@H](O)[C@H](Cc1ccccc1)NS(=O)(=O)c1cccc2nonc12 [Example 001012]
IC50: 0.1 to 10 µM

Cc1ccccc1S(=O)(=O)NC(=O)N[C@@H](Cc1ccccc1)[C@H](O)CCc1ccccc1C(=O)NC(C)(C)C [Example 001014]
IC50: 0.1 to 10 µM

CC(C)(C)NC(=O)c1ccccc1CC[C@@H](O)[C@H](Cc1ccccc1)NC(=S)Oc1ccc(F)cc1 [Example 001017]
IC50: > 10 µM

CC(C)(C)NC(=O)c1ccccc1CC[C@@H](O)[C@H](Cc1ccccc1)NC(=O)c1ccccc1Nc1ccccc1 [Example 001020]
IC50: > 10 µM

COc1ccc(C(=O)c2ccccc2C(=O)N[C@@H](Cc2ccccc2)[C@H](O)CCc2ccccc2C(=O)NC(C)(C)C)c(O)c1 [Example 001034]
IC50: 0.1 to 10 µM

CC(C)(C)NC(=O)c1ccccc1CC[C@@H](O)[C@H](Cc1ccccc1)NC(=O)c1ccc(Br)c(C(=O)O)c1 [Example 001035]
IC50: 0.1 to 10 µM

CC(C)(C)NC(=O)c1ccccc1CC[C@@H](O)[C@H](Cc1ccccc1)NC(=O)c1cc(C(F)(F)F)ccc1Cl [Example 001036]
IC50: > 10 µM

CC(C)(C)NC(=O)c1ccccc1CC[C@@H](O)[C@H](Cc1ccccc1)NC(=O)c1ccccc1C(=O)c1ccccc1N [Example 001040]
IC50: 0.1 to 10 µM

CC(C)(C)NC(=O)c1ccccc1CC[C@@H](O)[C@H](Cc1ccccc1)NC(=O)c1ccccc1C(F)(F)F [Example 001042]
IC50: 0.1 to 10 µM

CC(C)(C)NC(=O)c1ccccc1CC[C@@H](O)[C@H](Cc1ccccc1)NC(=O)c1ccc(C(=O)c2ccccc2)cc1 [Example 001047]
IC50: 0.1 to 10 µM
